Measured values as given in patent US9034403B2, “Yeast extract containing γ-Glu-X or γ-Glu-X-Gly and a method for producing the same” (AJINOMOTO CO., INC., priority 2010, dated 2015).
Numbered stars: 1 amine (or outer) side, 2 acyl side, 3 side chain; on linkers, the order of the positions; unused ones are H or OH. Square brackets hold non-standard residues; d marks the D form. Peptide text beside a SMILES is read from it. γGlu = O=C(O)[C@H](CCC(=O)[*:2])N[*:1]; Nva = CCC[C@H](N)C(=O)O

Key:
[1] = tested on: Saccharomyces cerevisiae S288C strain; test: Addition of peptide to medium of S288C strain; peptide content in dry cells and in extract by LC-MS/MS; type: cell-based
Experimental: Absorbance of the obtained culture broth was measured, the culture broth was inoculated into SD medium (400 ml in a 2 L-volume conical flask with baffle fins, a pluratity of flasks) so that OD660 was 0.01 at the start of the culture (absorbance was measured by using DU640 SPECTROPHTOMETER, BECKMAN COULTER), and culture was performed at 30° C. for 19 hours with shaking by rotation at a velocity of 120 rpm. From the obtained culture broth, 400 OD units of the cells (1 OD unit is defined as cells contained in 1 ml of culture broth of which OD660 is 1) were collected by centrifugal separation. The supernatant was removed as much as possible, and the residual cells were suspended in 45 ml of Milli-Q water. The cells were collected again by centrifugal separation, and resuspended in 45 ml of Milli-Q water. By repeating this operation 3 times in total, the medium was completely removed from the cells. The washed cells were suspended in about 1.5 ml of Milli-Q water, and the suspension was heated at 70° C. for 10 minutes. By this step, the extractable components contained in the cells were extracted. Then, the extract and the cell residue were separated by centrifugation.
Cell debris were removed from the extract using a centrifugal filtration membrane of 10 kDa (Amicon Ultra—0.5 mL 10K, MILLIPORE, Catalogue Number UFC501096)), the obtained fraction was derivatized with the AQC reagent in the same manner as that used in Example 1, and γ-Glu-Val-Gly and γ-Glu-Val were measured by LC-MS/MS. Separately, the amount of GSH in the cells was measured in a conventional manner (GSH in the extract was derivatized by using a fluorescence reagent ABD-F that binds to thiol group, separated and quantified by HPLC). Furthermore, dry cell weight was measured after the washed cells were dried at 104° C. for 4 hours. From the amounts of γ-Glu-Val-Gly and γ-Glu-Val in the extract prepared from the cells that was contained in a certain volume of culture broth and dry cell weight measured as described above, the amount of these peptides based on weight of dried cells was calculated. […]
One loop of the S288C strain was inoculated into SD medium (50 ml in a 500 ml-volume Sakaguchi flask), and cultured at 30° C. for 24 hours with shaking at a velocity of 120 rpm. Absorbance of the obtained culture broth was measured, the culture broth was inoculated into SD medium (400 ml in a 2 L-volume conical flask with baffle fins, two or more flasks) so that OD660 was 0.01 at the start of the culture, and culture was performed at 30° C. for 19 hours with shaking by rotation at a velocity of 120 rpm. After 19 hours, γ-Glu-Val-Gly aqueous solutions of various concentrations were added to obtain predetermined concentrations, and the culture was continued for 1 hour. Using these culture broths, the γ-Glu-Val-Gly content in dry cells was calculated in the same manner as in Example 2. Furthermore, the solid content of the extract was calculated, and the amount of γ-Glu-Val-Gly in the solid content was also calculated. […]
The cells were collected from the total culture broth, and washed in the same manner as that of Example 2. The washed cells in an amount of 400 OD units were suspended in 1.5 ml of Milli-Q water. This suspension was maintained at 70° C. for 10 minutes to produce an extract from the yeast cells. Furthermore, the suspension was centrifuged to remove the cell residues and thereby collect only the extract. The γ-Glu-Val-Gly concentration of this extract (extract of addition experiment) was measured to be about 300 ppm, and solid content was about 1%. The γ-Glu-Val-Gly concentration in an extract prepared in the same way but without adding γ-Glu-Val-Gly to the culture broth (extract of no addition experiment) was below the quantitation limit, and solid content was about 1%.
One loop of the S288C strain was inoculated into SD medium (50 ml in a 500 ml-volume Sakaguchi flask), and cultured at 30° C. for 24 hours with shaking at a velocity of 120 rpm. […]

[2] = tested on: GSH1 overexpressing strain AG1; test: Addition of nVal to GSH1 overexpressing strain AG1, γ-Glu-nVal content; type: cell-based, Saccharomyces cerevisiae; conditions: for γ-Glu-nVal content: culture continued 1 hour
Experimental: Then, this AG1 strain was cultivated in SD medium supplemented with nVal. More specifically, one loop of the AG1 strain was inoculated into SD medium (50 ml in a 500 ml-volume Sakaguchi flask), and cultured at 30° C. for 24 hours with shaking at a velocity of 120 rpm. Absorbance of the obtained culture broth was measured, and the culture broth was inoculated into SDP medium (400 ml in a 2 L-volume conical flask with baffle fins, two or more flasks) so that OD660 was 0.01 at the start of the culture, and culture was performed at 30° C. for 23 hours with shaking by rotation at a velocity of 120 rpm. After 23 hours, nVal solution was added to a final concentration of 10 ppm or 100 ppm, and the cultures were continued for 1 hour. Then, the amount of γ-Glu-nVal was measured in the same manner described in the experimental example 15. The γ-Glu-nVal content was 0.07% when 10 ppm of nVal was added to the medium and the γ-Glu-nVal content was 0.37% when 100 ppm of nVal was added to the medium. Then, yeast extract containing γ-Glu-nVal was prepared from the broth culture cultivated with 100 ppm nVal basically in the same manner as described in Example 16. This yeast extract contained 1.44% γ-Glu-nVal at the dry matter base. This yeast extract would give strong kokumi for initial and middle taste from its character.

[3] = tested on: GSH2 overexpressing strain PG2 and WT strain; test: Addition of γ-Glu-Val to GSH2 overexpressing strain PG2 and WT strain, γ-Glu-Val-Gly content; type: cell-based, Saccharomyces cerevisiae
Experimental: GSH2 overexpressing strain PG2 was constructed basically in the same manner as described in Example 10 except that AJ14956 described in Example 19 was used instead of ura3Δ0 from S288C. As a control, WT strain was obtained by returning the deleted URA3 gene into wild type gene from AJ14956 in the same manner described in Example 10 and Example 19.
One loop of the WT strain or PG2 strain was inoculated into SD medium (50 ml in a 500 ml-volume Sakaguchi flask), and cultured at 30° C. for 24 hours with shaking at a velocity of 120 rpm. Absorbance of the obtained culture broth was measured, and the culture broth was inoculated into the SD medium supplemented with various concentrations of γ-Glu-Val (400 ml in a 2 L-volume conical flask with baffle fins, two or more flasks) so that OD660 was 0.01 at the start of the culture, and culture was performed at 30° C. with shaking by rotation at a velocity of 120 rpm until OD660 reached to the predetermined value. Then, the amount of γ-Glu-Val-Gly in dry cells and the solid content of the extracted extract were calculated in the same manner described previously. As shown in the results, PG2, a GSH2 overexpressing strain, took up γ-Glu-Val from the medium and converted it into γ-Glu-Val-Gly in the cell.

[4] = tested on: S288C, Y3560 and YEp24-PTDH3-GSH2 strains; test: Influence of YEp24-PTDH3-GSH2 on γ-EV to γ-EVG conversion; type: cell-based, Saccharomyces cerevisiae; conditions: 18 hours
Experimental: Each of the S288C ura3Δ227/YEp24-PTDH3-GSH2, Y3560/YEp24-PTDH3-GSH2, S288C and Y3560 strains, was cultivated in 50-ml tubes containing 10 ml of SD medium with 100 ppm γ-Glu-Val as a final concentration. For Y3560 strain medium was also supplemented with uracil (20 mg/L). Tubes were inoculated by overnight culture of corresponding strain at initial OD600=0.01, and placed in rotation shaker at 240 rpm, 30° C. for 18 hours. Then cells from 2 ml of broth culture were harvested by centrifugation, and were washed by 1 ml of milliQ water three times. Then washed cells were suspended in 1 ml of milliQ and were incubated at 70° C. for 10 min with a water bath to extract intracellular materials. After cell debris and the extract were separated by centrifugation, aqueous phase was transferred to clean vial and then the vial was vacuum-dried. Thus the dried extract was prepared. Then γ-Glu-Val-Gly in the dried extract was measured with LC-MS/MS analysis as it is described in example 12.

[5] = tested on: S288C PADH1-HGT1 (Hgt1p overproducing strain) and S288C; test: Peptide uptake of Hgt1p overproducing strain and parental strain S288C, intracellular content on dry weight cell; type: cell-based, Saccharomyces cerevisiae; conditions: S288C PADH1-HGT1; γ-Glu-nVal-Gly 100 ppm added to the medium
Experimental: One loop of the S288C strain was inoculated into SD medium (50 ml in a 500 ml-volume Sakaguchi flask), and cultured at 30° C. for 24 hours with shaking at a velocity of 120 rpm. Absorbance of the obtained culture broth was measured, the culture broth was inoculated into SD medium (400 ml in a 2 L-volume conical flask with baffle fins, two or more flasks) so that OD660 was 0.01 at the start of the culture, and culture was performed at 30° C. for 19 hours with shaking by rotation at a velocity of 120 rpm. After 19 hours, γ-Glu-Val-Gly aqueous solutions of various concentrations were added to obtain predetermined concentrations, and the culture was continued for 1 hour. Using these culture broths, the γ-Glu-Val-Gly content in dry cells was calculated in the same manner as in Example 2. Furthermore, the solid content of the extract was calculated, and the amount of γ-Glu-Val-Gly in the solid content was also calculated.
The S288C PADH1-HGT1, Hgt1p overproducing strain obtained in Example 12, and its parental strain S288C, were evaluated for their ability to take up γ-Glu-Val-Gly in the same manners as described in Example 4. The amount of γ-Glu-Val-Gly added into the medium was 100 ppm as a final concentration. As a result, intracellular content of γ-Glu-Val-Gly in S288C on the dry weight cell was about 0.9%, but intracellular content of γ-Glu-Val-Gly in S288C PADH1-HGT1 on the dry weight cell was about 4.9%.
S288C PADH1-HGT1, Hgt1p overproducing strain obtained in Example 12, and its parental strain S288C were evaluated for their γ-Glu-nVal-Gly uptake abilities in the same manners as described in Example 4 and Example 13. The amount of γ-Glu-nVal-Gly added to the medium was 100 ppm as a final concentration.

[6] = 25 ppm γ-Glu-Val added to medium after 19 hours, culture continued 1 hour
[7] = 100 ppm γ-Glu-Val added to medium after 19 hours, culture continued 1 hour
[8] = 200 ppm γ-Glu-Val added to medium after 19 hours, culture continued 1 hour
[9] = γ-Glu-Val 100 ppm added to SD medium in advance, culture 24 hours
[10] = PG2 strain, γ-Glu-Val in the medium 100 ppm, CT 21 hr
[11] = PG2 strain, γ-Glu-Val in the medium 500 ppm, CT 21 hr
[12] = WT strain, γ-Glu-Val in the medium 100 ppm, CT 19 hr
[13] = WT strain, γ-Glu-Val in the medium 500 ppm, CT 19 hr

Structure (SMILES): CCC[C@H](NC(=O)CC[C@H](N)C(=O)O)C(=O)O [γ-Glu-nVal]
- γ-Glu-nVal content in the dry cell ([1]; γ-Glu-nVal added into the medium at 10 ppm): about 0.03%
- γ-Glu-nVal content in the dry cell ([1]; γ-Glu-nVal added into the medium at 100 ppm): about 0.13%

Structure (SMILES): CCC[C@H](N)C(=O)O [nVal, norvaline]
- γ-Glu-nVal content ([2]; 10 ppm of nVal added after 23 hours): 0.07%
- γ-Glu-nVal content ([2]; 100 ppm of nVal added after 23 hours): 0.37%
- γ-Glu-nVal in yeast extract at the dry matter base ([2]; yeast extract from broth culture cultivated with 100 ppm nVal): 1.44%

Structure (SMILES): CC(C)[C@H](NC(=O)CC[C@H](N)C(=O)O)C(=O)O [γ-Glu-Val]
- γ-Glu-Val content in dry cells [1, 6]: 1468 ppm
- γ-Glu-Val content in solid content of extract [1, 6]: 8491 ppm
- γ-Glu-Val content in dry cells [1, 7]: 6369 ppm
- γ-Glu-Val content in solid content of extract [1, 7]: 27599 ppm
- γ-Glu-Val content in dry cells [1, 8]: 10930 ppm
- γ-Glu-Val content in solid content of extract [1, 8]: 49474 ppm
- γ-Glu-Val present in dry cells [1, 9]: 7171 ppm
- γ-Glu-Val-Gly present in dry cells [1, 9]: 20 ppm
- γ-Glu-Val-Gly content in dry cells [3, 10]: 81 ppm
- γ-Glu-Val-Gly content in solid content of extract [3, 10]: 384 ppm
- γ-Glu-Val-Gly content in dry cells [3, 11]: 123 ppm
- γ-Glu-Val-Gly content in solid content of extract [3, 11]: 585 ppm
- γ-Glu-Val-Gly content in dry cells [3, 12]: 7 ppm
- γ-Glu-Val-Gly content in solid content of extract [3, 12]: 29 ppm
- γ-Glu-Val-Gly content in dry cells [3, 13]: 7 ppm
- γ-Glu-Val-Gly content in solid content of extract [3, 13]: 29 ppm
- γ-EVG ([4]; strain S288C ura3Δ227/YEp24-PTDH3-GSH2, 100 ppm γ-Glu-Val in SD medium): 705 μg 1^−1 OD600^−1
- γ-EVG ([4]; strain S288C, 100 ppm γ-Glu-Val in SD medium): 6 μg 1^−1 OD600^−1
- γ-EVG ([4]; strain Y3560/YEp24-PTDH3-GSH2, 100 ppm γ-Glu-Val in SD medium): 2039 μg 1^−1 OD600^−1
- γ-EVG ([4]; strain Y3560, 100 ppm γ-Glu-Val in SD medium with uracil): 110 μg 1^−1 OD600^−1

Structure (SMILES): CCC[C@H](NC(=O)CC[C@H](N)C(=O)O)C(=O)NCC(=O)O [γ-Glu-nVal-Gly] (γGlu-[Nva]-Gly-OH)
- γ-Glu-nVal-Gly concentration of extract ([1]; 50 ppm γ-Glu-nVal-Gly added after 19 hours, culture continued 1 hour, 400 OD units in 1.5 ml, solid content about 1%): about 100 ppm
- γ-Glu-nVal-Gly content in the dry cell ([1]; γ-Glu-nVal-Gly added into the medium at 10 ppm): about 0.07%
- γ-Glu-nVal-Gly content in the dry cell ([1]; γ-Glu-nVal-Gly added into the medium at 100 ppm): about 0.09%
- intracellular content of γ-Glu-nVal-Gly on the dry weight cell [5]: about 2.84%
